Assay results reported in patent US11724998B2, “PXR agonists and uses thereof for gut barrier dysfunction treatment and prevention” (Albert Einstein College of Medicine, priority 2017, dated 2023).
“And” between values parts separate entries of the source, which are not always exact repeats. Equal entries are not always repeated. Where two headings read alike, the source gives them in different places. One block for each molecule: values may come before it.

Tests used:
RXR = RXR ligand displacement (radiolabeled 9-cis-retinoic acid); type: binding; details: displacement of radiolabeled 9-cis-retinoic acid
Description: (§1) FIG. 6A-6E. Activation and inhibition studies with different FKK compounds. (A) PXR activation, LS180 cells (upper), and PXR inhibition, LS180 cells, co-incubation with RIF (lower). (B) AhR activation, AZ-AHR cells (upper), and AhR inhibition, AZ-AHR cells, co-incubation with TCDD (lower). (C) GR activation, AZ-GR cells (upper), and VDR activation, IZ-VDRE cells (lower). (D) TR activation, PZ-GR cells (upper), and AR activation, AIZ-AR cells (lower). (E) Displacement of radiolabeled 9-cis-retinoic acid (RA) by FKK compounds.
(§2) All the synthesized compounds and intermediates were tested for their potential to activate PXR and/or AhR via luciferase assays. The PXR activation assays were performed by co-transfecting full-length expressing human PXR plasmid (91) and p3A4 luciferase reporter (92) in LS180 or Caco-2 cells. AhR activation conducted using stably co-transfected HepG2 reporter cells as previously described (93). […] With the exception of FKK6, there was no significant inhibition of TCDD-induced AhR activation. […] Independent verification of AhR activity of randomly selected compounds—FKK 5, 6 and 9—was performed in a separate laboratory (GHP). Nuclear receptor selectivity was assessed for FKK compounds for GR, ADR, TR and AR using cell-based luciferase assays previously described (93-102). […]

AhR target gene (CYP1A1) = type: cell-based, human
Description: (§3) FIG. 2A-2F. […] Histogram, mean±SD.
FIG. 7A-7B. Effects of FKK compounds on CYP3A4, MDR1 and CYP1A1 gene expression in LS180 cells. (A) mRNA expression. (B) mRNA expression in wt-PXR transfected cells.

[1] = test system: PXR target genes (CYP3A4, MDR1)
468 kinases = assay: Kinase profiling, scanMAX (KINOMEscan) panel; type: binding; details: 10 μM; for Number of Hits: 403 non-mutant kinases
Description: The kinase inhibition assays were conducted by DiscoverX on a platform assay by Ambit BioSciences as described previously (112, 113). FKK6 was screened at a single concentration of 10 μM in duplicate. The scanMAXSM assay panel measures 468 kinases (WorldWideWeb.discoverx.com/services/drug-discovery-development-services/kinase-profiling/kinomescan/scanmax). The assays measures a compound's ability to inhibit binding of a canonical ligand substrate, with 0% activity of control corresponding to full inhibition and 100% activity of control to no inhibition. […] Three different activity cut-offs were analyzed—S(35) or % activity of control <35; S(10) or % activity of control <10; and S(1) or % activity of control <1. To illustrate effect or lack of effect, an image of the entire family of kinases tested were grouped by families and S(35). The TREEspot Kinase dendrogram image was generated using TREEspot™ Software Tool and reprinted with permission from KINOMEscan®, a division of DiscoveRx Corporation, © DISCOVERX CORPORATION 2010.

[2] = test system: PXR occupancy of the target promoters; assay: Chromatin immunoprecipitation assay (ChIP); type: cell-based; details: semi-quantitative PCR
Description: These assays were performed as previously published (27).

PXR [3] = target: T1, PXR (Homo sapiens, UniProt O75469); assay: Isothermic titration calorimetry (ITC); type: binding; details: FIG. 11
T1 sequence (O75469 1-434): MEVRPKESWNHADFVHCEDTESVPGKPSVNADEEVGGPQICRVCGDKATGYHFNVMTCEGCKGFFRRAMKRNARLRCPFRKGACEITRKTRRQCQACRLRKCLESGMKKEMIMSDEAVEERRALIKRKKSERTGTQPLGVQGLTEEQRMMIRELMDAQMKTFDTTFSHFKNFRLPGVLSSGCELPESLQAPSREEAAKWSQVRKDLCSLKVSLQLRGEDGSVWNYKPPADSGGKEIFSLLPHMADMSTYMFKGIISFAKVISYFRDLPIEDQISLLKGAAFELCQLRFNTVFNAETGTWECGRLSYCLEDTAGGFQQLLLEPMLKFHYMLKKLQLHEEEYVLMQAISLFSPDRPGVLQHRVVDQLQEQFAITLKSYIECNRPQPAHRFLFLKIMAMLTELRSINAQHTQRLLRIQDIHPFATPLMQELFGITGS

[4] = test system: PXR target genes (CYP3A4, MDR1); details: human, 24 h, 10 μM
AhR [5] = target: T2, AhR (Homo sapiens, UniProt P35869); assay: AhR inhibition, AZ-AHR cells, co-incubation with TCDD; type: cell-based; set-up: endogenous in cells; host or cells: AZ-AHR (HepG2); details: read-out: inhibition of maximal induction by TCDD
T2 sequence (P35869 11-848): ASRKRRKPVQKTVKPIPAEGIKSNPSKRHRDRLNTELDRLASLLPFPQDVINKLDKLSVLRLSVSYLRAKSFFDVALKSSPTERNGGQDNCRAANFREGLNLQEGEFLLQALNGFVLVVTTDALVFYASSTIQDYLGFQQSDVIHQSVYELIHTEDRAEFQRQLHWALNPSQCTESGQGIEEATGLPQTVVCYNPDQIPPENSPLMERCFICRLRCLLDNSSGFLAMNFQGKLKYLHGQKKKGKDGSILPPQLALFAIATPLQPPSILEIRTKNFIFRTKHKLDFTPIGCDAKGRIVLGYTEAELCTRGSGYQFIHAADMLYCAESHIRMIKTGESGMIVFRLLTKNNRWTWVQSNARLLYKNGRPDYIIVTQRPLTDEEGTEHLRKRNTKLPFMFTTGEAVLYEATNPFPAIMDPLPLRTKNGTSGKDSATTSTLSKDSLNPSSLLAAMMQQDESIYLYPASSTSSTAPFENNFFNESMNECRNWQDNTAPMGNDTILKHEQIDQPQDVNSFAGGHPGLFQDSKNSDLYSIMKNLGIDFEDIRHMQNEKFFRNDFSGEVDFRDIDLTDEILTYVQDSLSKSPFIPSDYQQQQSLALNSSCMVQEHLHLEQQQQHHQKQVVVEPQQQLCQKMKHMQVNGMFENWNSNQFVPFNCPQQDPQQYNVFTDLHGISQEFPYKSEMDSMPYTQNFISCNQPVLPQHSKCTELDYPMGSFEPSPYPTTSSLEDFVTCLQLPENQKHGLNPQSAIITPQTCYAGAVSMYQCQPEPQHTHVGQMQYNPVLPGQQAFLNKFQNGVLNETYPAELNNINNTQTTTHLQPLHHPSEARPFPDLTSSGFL
Description: as §1, §2

[6] = test system: PXR target genes (CYP3A4, MDR1); assay: PXR target gene mRNA expression in plated human hepatocytes; details: 10 μM, 24 h, FIG. 2
PXR [7] = target: T1, PXR; assay: PXR activation (transactivation) luciferase assay in LS180 cells; type: cell-based; set-up: co-transfecting full-length expressing human PXR plasmid (91) and p3A4 luciferase reporter (92) in LS180 or Caco-2 cells; expressed in transfected cells; host or cells: LS180
Description: as §1
(§4) Two molecules that were readily available (Ryan Scientific: FKK999 & BAS451) were purchased and tested in vitro for PXR activation using a HepG2 reporter assay. […] […]. […] In general, reporter cell lines are efficient ways to screen for PXR ligands (72). In the LS180 intestinal cell line, the PXR activation assay involves a transient transfection system using a specific PXR plasmid and reporter plasmid (CVmax % 11.2+2; CVmid % 10.8+0.1.4; Signal Window 6.2+1.1; Z′ factor 0.51+0.005).
(§5) All the synthesized compounds and intermediates were tested for their potential to activate PXR and/or AhR via luciferase assays. The PXR activation assays were performed by co-transfecting full-length expressing human PXR plasmid (91) and p3A4 luciferase reporter (92) in LS180 or Caco-2 cells. AhR activation conducted using stably co-transfected HepG2 reporter cells as previously described (93). […] With the exception of FKK6, there was no significant inhibition of TCDD-induced AhR activation. […] Independent verification of AhR activity of randomly selected compounds—FKK 5, 6 and 9—was performed in a separate laboratory (GHP). Nuclear receptor selectivity was assessed for FKK compounds for GR, ADR, TR and AR using cell-based luciferase assays previously described (93-102). There was no observed biologically significant (>2-fold) induction of nuclear receptor activity (FIG. 6C). RXR ligand displacement is only significant for FKK1 and FKK8 (FIG. 6D).

AhR [8] = target: T2, AhR; assay: AhR activation, AZ-AHR (stably co-transfected HepG2) reporter cells; type: cell-based; set-up: endogenous in cells; host or cells: AZ-AHR (HepG2); details: to a much lesser extent than FKK 2 and 9; FIG. 6B
Description: as §1, §5

[9] = test system: AhR target genes (CYP1A1 and CYP1A2); type: cell-based, human
Description: as §3

[10] = test system: AhR target genes (CYP1A1 and CYP1A2); assay: AhR target gene mRNA expression in HepaRG cells (control, AhR-KO)
PXR [11] = target: T1, PXR; assay: PXR activation, HepG2 reporter assay; type: cell-based; set-up: host or cells: HepG2
Description: as §4

AhR [12] = target: T2, AhR; assay: AhR activation by IPA (assay not described); type: cell-based
Description: IPA/Indoles can have weak (˜2 fold) but important effects on the activation of other nuclear receptors (e.g., CAR, LXR) (33). […] Some receptors, specifically CAR and LXR, can act to induce liver steatosis (79, 83-86) and hepatocarcinogenesis (CAR) (80, 84, 87-89) and thus, avoiding excessive activation of these nuclear receptors in the context of PXR activation would be important. […] CDK5 (along with CDK2) are important kinases that phosphorylate and inhibit PXR activation (90).

Compound: O=S(=O)(c1ccccc1)n1c(C(O)c2ccncc2)cc2ccccc21 (stereo not shown) [FKK1]
RXR ligand displacement (RXR): significant
CYP1A1 mRNA expression (AhR target gene (CYP1A1)): attenuated effects
CYP1A1 mRNA induction (AhR target gene (CYP1A1)): attenuated effects
CYP3A4 mRNA expression [1]: expression is reduced

Compound: C#CCC(O)(c1ccncc1)c1cc2ccccc2n1S(=O)(=O)c1ccccc1 (stereo not shown) [FKK6]
S(1-35)-scores (468 kinases; duplicate): 0
inhibitory effects on kinases (468 kinases; 468 kinases): lack of inhibitory effects of FKK6 on any kinase
Number of Hits (468 kinases; S(1), % activity of control <1): 0
Number of Hits (468 kinases; S(10), % activity of control <10): 0
Number of Hits (468 kinases; S(35), % activity of control <35): 0
PXR occupancy of the target promoters [2]: efficiently induces PXR occupancy
binding to human PXR (PXR [3]): efficient and direct binding
CYP3A4 induction [4]: ~10 fold
MDR1 induction [4]: > 6 fold
inhibition at 10 µM (AhR [5]): ~25%
CYP3A4 induction [6]: ~2.6 fold
MDR1 induction [6]: ~1.5 fold
EC50 (PXR [7]): 0.88 µM
Emax (PXR [7]; read-out: Emax/Emax[rifampicin, positive control]): 117%

Compound: OC(Cc1cc2ccccc2[nH]1)(c1ccncc1)c1cc2ccccc2[nH]1 (stereo not shown) [FKK10]
AhR activation profile (AhR [8]): variable degrees of dose-dependent AhR activation

Compound: Clc1cc2c(cc1Cl)Oc1cc(Cl)c(Cl)cc1O2 [TCDD]
CYP1A1 mRNA induction (AhR target gene (CYP1A1); PXR transfected LS180 cells, FIG. 7B): 1299.1 fold
CYP1A1 mRNA expression (AhR target gene (CYP1A1); un-transfected LS180 cells, FIG. 7A): 2347 fold and < 3000 fold
induction of CYP1A1 and CYP1A2 ([9]; primary human hepatocytes, FKK2 and FKK9 in 1 of 4 hepatocytes): > 5000 fold

Compound: O=S(=O)(c1ccccc1)n1c(C(O)(Cc2cc3ccccc3[nH]2)c2ccncc2)cc2ccccc21 (stereo not shown) [FKK7]
AhR activation profile (AhR [8]): variable degrees of dose-dependent AhR activation

Compound: CC#CC(O)(c1ccncc1)c1cc2ccccc2n1S(=O)(=O)c1ccccc1 (stereo not shown) [FKK3]
AhR activation profile (AhR [8]): variable degrees of dose-dependent AhR activation

Compound: Cc1[nH]c2ccccc2c1C(c1ccccc1)c1c(C)[nH]c2ccccc12 [BAS451]
EC50 (PXR [11]): > 50 µM

Compound: CC#CC(O)(c1ccncc1)c1cc2ccccc2n1COCC (stereo not shown) [FKK4]
AhR activation profile (AhR [8]): variable degrees of dose-dependent AhR activation

Now from value to molecule, other results behind:

induction of CYP1A1 and CYP1A2 ([9]; human, hepatocytes): > 100 fold
induction of CYP1A1 and CYP1A2 [10]: completely diminished
Compound: CCOCn1c(C(O)(Cc2cc3ccccc3[nH]2)c2ccncc2)cc2ccccc21 (stereo not shown) [FKK9]

CYP1A1 mRNA expression (AhR target gene (CYP1A1)): attenuated effects
CYP1A1 mRNA induction (AhR target gene (CYP1A1)): attenuated effects
CYP3A4 mRNA expression [1]: expression is reduced
CYP3A4 mRNA induction ([1]; human): > 2 fold
EC50 (PXR [11]; HepG2 reporter assay, read-out: EC50, PXR activation): 5 µM
Compound: Cc1[nH]c2ccccc2c1C(c1c(C)[nH]c2ccccc12)c1c(C)[nH]c2ccccc12 [FKK999, reference compound]
AhR activation profile (AhR [8]): variable degrees of dose-dependent AhR activation

induction of CYP1A1 and CYP1A2 ([9]; human, hepatocytes): > 100 fold
induction of CYP1A1 and CYP1A2 [10]: completely diminished
Compound: OC(c1ccncc1)(c1cc2ccccc2[nH]1)c1cc2ccccc2[nH]1 [FKK2]

AhR activation (AhR [12]): does not activate AhR
Compound: O=C(O)CCc1c[nH]c2ccccc12 [IPA, indole-3-propionic acid, reference compound]
